From patent US20230257396A1, “MACROCYCLES AND THEIR USE” (BLOSSOMHILL THERAPEUTICS, INC., priority 2020, published 2023)
Substitutions are numbered along the chain they refer to.

Columns and labels:
Experiment in all cases: KINOMEscan kinase binding assay (Eurofins/DiscoveRx), % Ctrl
Settings in all cases: 1 μM
kinases [1] = target: T1, kinases (Homo sapiens, UniProt P36888, D835Y)
T1 construct: purchased Eurofins/DiscoveRx; host or cells: E. coli BL21-derived host (T7 phage display) for most kinases; HEK-293 for the rest
T1 sequence (P36888 27-993 D835Y): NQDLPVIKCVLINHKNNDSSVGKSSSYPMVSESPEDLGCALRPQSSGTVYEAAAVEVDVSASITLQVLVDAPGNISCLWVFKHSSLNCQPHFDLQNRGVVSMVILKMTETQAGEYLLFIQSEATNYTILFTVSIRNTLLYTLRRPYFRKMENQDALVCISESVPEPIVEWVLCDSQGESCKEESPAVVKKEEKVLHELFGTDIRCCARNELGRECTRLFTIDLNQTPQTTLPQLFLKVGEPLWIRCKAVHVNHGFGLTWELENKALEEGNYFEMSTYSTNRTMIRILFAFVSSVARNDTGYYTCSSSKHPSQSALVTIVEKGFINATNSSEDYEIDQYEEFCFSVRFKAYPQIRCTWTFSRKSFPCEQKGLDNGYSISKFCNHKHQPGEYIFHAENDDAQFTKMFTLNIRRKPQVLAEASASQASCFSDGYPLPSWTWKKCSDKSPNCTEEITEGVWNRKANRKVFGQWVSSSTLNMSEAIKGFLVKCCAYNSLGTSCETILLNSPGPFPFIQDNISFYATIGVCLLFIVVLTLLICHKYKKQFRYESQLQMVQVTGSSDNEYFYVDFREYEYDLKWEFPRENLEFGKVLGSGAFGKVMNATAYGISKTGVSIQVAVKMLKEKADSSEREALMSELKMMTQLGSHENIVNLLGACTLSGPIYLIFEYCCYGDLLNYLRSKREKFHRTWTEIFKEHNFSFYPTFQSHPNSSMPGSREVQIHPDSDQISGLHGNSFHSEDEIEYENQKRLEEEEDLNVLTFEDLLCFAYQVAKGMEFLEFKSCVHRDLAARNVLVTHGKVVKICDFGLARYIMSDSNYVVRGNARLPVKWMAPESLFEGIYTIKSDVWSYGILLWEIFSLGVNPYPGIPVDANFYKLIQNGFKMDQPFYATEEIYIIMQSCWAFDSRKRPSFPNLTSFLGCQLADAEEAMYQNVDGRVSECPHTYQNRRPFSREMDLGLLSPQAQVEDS
Summary of the method: (§1)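 Competition binding, 1 h RT: phage-tagged or HEK-293-expressed DNA-tagged kinase + immobilized ligand + compound. Eluate kinase by qPCR. % Ctrl = (test − positive ctrl)/(negative ctrl − positive ctrl) × 100; lower means stronger binding.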

kinases [2] = tested on: kinases
Summary of the method: as §1

kinases [3] = target: T2, kinases (Homo sapiens, UniProt P36888, R834Q)
T2 construct: purchased Eurofins/DiscoveRx; host or cells: E. coli BL21-derived host (T7 phage display) for most kinases; HEK-293 for the rest
T2 sequence (P36888 27-993 R834Q): T1 sequence (P36888 27-993 D835Y) with R808Q, Y809D
Summary of the method: as §1

kinases [4] = target: T3, kinases (Homo sapiens, UniProt P00533, DEL746-750)
T3 construct: purchased Eurofins/DiscoveRx; host or cells: E. coli BL21-derived host (T7 phage display) for most kinases; HEK-293 for the rest
Summary of the method: as §1

kinases [5] = target: T4, kinases (Homo sapiens, UniProt P07949, V804M)
T4 construct: purchased Eurofins/DiscoveRx; host or cells: E. coli BL21-derived host (T7 phage display) for most kinases; HEK-293 for the rest
T4 sequence (P07949 29-1114 V804M): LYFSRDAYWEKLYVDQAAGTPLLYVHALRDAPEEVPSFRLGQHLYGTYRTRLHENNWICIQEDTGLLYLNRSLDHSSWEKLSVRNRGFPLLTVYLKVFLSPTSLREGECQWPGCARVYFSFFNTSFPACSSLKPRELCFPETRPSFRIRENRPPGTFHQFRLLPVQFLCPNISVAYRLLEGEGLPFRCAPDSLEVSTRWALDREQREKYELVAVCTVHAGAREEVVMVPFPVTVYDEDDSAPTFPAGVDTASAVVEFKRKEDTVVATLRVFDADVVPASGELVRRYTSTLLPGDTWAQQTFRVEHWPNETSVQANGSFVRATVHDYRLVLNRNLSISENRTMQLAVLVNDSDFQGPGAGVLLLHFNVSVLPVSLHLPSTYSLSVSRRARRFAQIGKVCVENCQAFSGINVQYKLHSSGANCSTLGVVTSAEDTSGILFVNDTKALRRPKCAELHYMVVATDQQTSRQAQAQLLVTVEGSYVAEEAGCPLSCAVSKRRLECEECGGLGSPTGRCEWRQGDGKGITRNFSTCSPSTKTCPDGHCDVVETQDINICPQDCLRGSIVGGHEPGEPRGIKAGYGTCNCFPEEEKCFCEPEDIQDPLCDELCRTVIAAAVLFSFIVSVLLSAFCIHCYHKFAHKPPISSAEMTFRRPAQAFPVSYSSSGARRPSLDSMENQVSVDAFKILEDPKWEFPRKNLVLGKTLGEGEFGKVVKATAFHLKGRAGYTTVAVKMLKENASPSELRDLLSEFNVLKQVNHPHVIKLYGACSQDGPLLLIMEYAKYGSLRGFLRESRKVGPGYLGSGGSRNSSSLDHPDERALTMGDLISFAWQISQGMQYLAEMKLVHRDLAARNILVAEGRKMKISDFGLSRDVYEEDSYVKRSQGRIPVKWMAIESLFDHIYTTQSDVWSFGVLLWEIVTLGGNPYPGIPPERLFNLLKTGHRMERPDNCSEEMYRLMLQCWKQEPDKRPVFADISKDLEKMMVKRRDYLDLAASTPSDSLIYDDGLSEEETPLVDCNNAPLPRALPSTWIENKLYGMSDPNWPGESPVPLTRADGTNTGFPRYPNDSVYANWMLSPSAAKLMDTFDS
Summary of the method: as §1

[6] = target EGFR(L747-E749del, A750P)
[7] = target EGFR(L747-S752del, P753S)
[8] = target EGFR(L747-T751del, Sins)

SMILES | % Ctrl, FLT3(D835Y) (kinases [1]; FLT3(D835Y)) [% Ctrl] | % Ctrl, EGFR(L747-E749del, A750P) (kinases [2]; EGFR(L747-E749del, A750P)) [% Ctrl] | % Ctrl, EGFR(L747-S752del, P753S) (kinases [2]; EGFR(L747-S752del, P753S)) [% Ctrl] | % Ctrl, EGFR(L747-T751del, Sins) (kinases [2]; EGFR(L747-T751del, Sins)) [% Ctrl] | % Ctrl, FLT3(ITD) (kinases [2]; FLT3(ITD)) [% Ctrl] | % Ctrl, FLT3(ITD, D835V) (kinases [2]; FLT3(ITD, D835V)) [% Ctrl] | % Ctrl, FLT3(ITD, F691L) (kinases [2]; FLT3(ITD, F691L)) [% Ctrl] | % Ctrl, FLT3(R834Q) (kinases [3]; FLT3(R834Q)) [% Ctrl] | % Ctrl, EGFR(E746-A750del) (kinases [4]; EGFR(E746-A750del)) [% Ctrl] | % Ctrl, RET(V804M) (kinases [5]; RET(V804M)) [% Ctrl] | % Ctrl, FLT3(D835Y) (kinases [1]; target FLT3(D835Y)) [% Ctrl] | % Ctrl, EGFR(L747-E749del, A750P) (kinases [2]; [6]) [% Ctrl] | % Ctrl, EGFR(L747-S752del, P753S) (kinases [2]; [7]) [% Ctrl] | % Ctrl, EGFR(L747-T751del, Sins) (kinases [2]; [8]) [% Ctrl] | % Ctrl, FLT3(ITD) (kinases [2]; target FLT3(ITD)) [% Ctrl] | % Ctrl, FLT3(ITD, D835V) (kinases [2]; target FLT3(ITD, D835V)) [% Ctrl] | % Ctrl, FLT3(ITD, F691L) (kinases [2]; target FLT3(ITD, F691L)) [% Ctrl] | % Ctrl, FLT3(R834Q) (kinases [3]; target FLT3(R834Q)) [% Ctrl] | % Ctrl, EGFR(E746-A750del) (kinases [4]; target EGFR(E746-A750del)) [% Ctrl] | % Ctrl, RET(V804M) (kinases [5]; target RET(V804M)) [% Ctrl]
Cc1cc2c([nH]1)/C=C1\C(=O)Nc3ccc(cc31)-c1c(noc1C)COCCN(C)C2=O [Ex. 128, [3a(4)Z]-6,9,16-trimethyl-1,11-dihydro-2H,13H-1,17-(ethanediylidene)[1,4]oxazolo[4,3-m]dipyrrolo[3,2-f:3′,4′-i][1,4]oxazacyclopentadecine-3,8(5H,9H)-dione] | 22 | 85 | 93 | 94 | 43 | 5.8 | 10 | 68 | 86 | 55 | – | – | – | – | – | – | – | – | – | –
Cc1cc2c([nH]1)/C=C1\C(=O)Nc3ccc(cc31)-c1c(noc1C(C)C)COCCN(C)C2=O [Ex. 161, [3a(4)Z]-9-methyl-16-(propan-2-yl)-10,11-dihydro-2H,13H-1,17-(ethanediylidene)[1,2]oxazolo[4,3-m]dipyrrolo[3,2-f:3′,4′-i][1,4]oxazacyclopentadecine-3,8(5H,9H)-dione] | – | – | – | – | – | – | – | – | – | – | 36 | 100 | 80 | 93 | 85 | 83 | 82 | 100 | 87 | 83
Cc1cc2c([nH]1)/C=C1\C(=O)Nc3ccc(cc31)O[C@@H](C)COCCN(C)C2=O [Ex. 92, [10S,16a(17)Z]-2,5,10-trimethyl-6,7,9,10-tetrahydro-1H-12,14-(ethanediylidene)dipyrrolo[3,2-i:3′,4′-l][1,4,7]dioxazacyclopentadecine-4,16(5H,15H)-dione] | 28 | 91 | 55 | 98 | 45 | 8.3 | 9.2 | 75 | 100 | 43 | – | – | – | – | – | – | – | – | – | –
Cc1cc2c([nH]1)/C=C1\C(=O)Nc3cc(Cl)c(cc31)OCCOCCN(C)C2=O [Ex. 131, [16a(17)Z]-19-chloro-2,5-dimethyl-6,7,9,10-tetrahydro-1H-12,14-(ethanediylidene)dipyrrolo[3,2-i:3′,4′-l][1,4,7]dioxazacyclopentadecine-4,16(5H,15H)-dione] | 2.3 | 31 | 50 | 59 | 0.85 | 0 | 0.6 | 6.6 | 11 | 0.15 | – | – | – | – | – | – | – | – | – | –
CN1CCOc2cc3c(cc2Cl)NC(=O)/C3=C\c2[nH]ccc2C(=O)N(C)CC1 [Ex. 164, [16a(17)Z]-19-chloro-2,5,8-trimethyl-5,6,7,8,9,10-hexahydro-12,14-(ethanediylidene)dipyrrolo[3,2-i:3′,4′-l][1,4,7]oxadiazacyclopentadecine-4,16(1H,15H)-dione] | – | – | – | – | – | – | – | – | – | – | 0.5 | 19 | 47 | 45 | 0.9 | 0.3 | 1 | 13 | 18 | 2.1
Cc1cc2c([nH]1)/C=C1\C(=O)Nc3cnc(cc31)-c1cnn(C)c1CN(C)CCN(C)C2=O [Ex. 172, [3a(4)Z]-6,9,12,14-tetramethyl-9,10,11,12,13,14-hexahydro-17,1-(azenometheno)pyrazolo[4,3-m]dipyrrolo[3,2-f:3′,4′-i][1,4]diazacyclopentadecine-3,8(2H,5H)-dione] | – | – | – | – | – | – | – | – | – | – | 0.1 | 62 | 52 | 43 | 1.1 | 0.3 | 0.3 | 16 | 43 | 0.8
Cc1cc2c([nH]1)/C=C1\C(=O)Nc3cc(Cl)c(cc31)SCCOCCN(C)C2=O [Ex. 169, [16a(17)Z]-19-chloro-5-methyl-6,7,9,10-tetrahydro-1H-12,14-(ethanediylidene)dipyrrolo[3,4-g:2′,3′-j][1,4,13]oxathiazacyclopentadecine-4,16(5H,15H)-dione] | – | – | – | – | – | – | – | – | – | – | 1.6 | 44 | 56 | 30 | 0.9 | 0.4 | 0.1 | 5.9 | 9.9 | 0.9
Cc1cc2c([nH]1)/C=C1\C(=O)Nc3ccc(nc31)-c1ccccc1OCCCNC2=O [Ex.22, [3a(4)Z]-6-methyl-9,10,11,12-tetrahydro-1,18-(ethanediylidene)dipyrrolo[3,2-g:3′,4′-j][1,5,12]benzoxadiazacyclopentadecine-3,8(2H,5H)-dione] | 93 | 73 | 95 | 81 | 100 | 71 | 100 | 97 | 97 | 93 | – | – | – | – | – | – | – | – | – | –
